Measurements published in patent US20250281424A1 (New York Blood Center, Inc, priority 2020, published 2025).

Target: T1, human PF4 (Homo sapiens, UniProt P02776)
T1 construct: PF4 is a 70 amino acid, lysine-rich 7.8 kDa platelet-specific protein; made in house; host or cells: Escherichia coli BL21DE3 pLysS (pT7-7) and/or Drosophila S2 cells
T1 sequence (P02776 32-101): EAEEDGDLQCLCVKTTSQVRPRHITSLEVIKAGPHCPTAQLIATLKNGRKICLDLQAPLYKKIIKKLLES
Assay: Inhibition of PF4 tetramer formation (BS3 cross-linking, SDS-PAGE)
Assay type: biochemical
Conditions: for inhibition at 5 µM: 5 μM inhibitor; for inhibition at 5 µM / inhibition at 10 µM / inhibition at 1 µM / inhibition at 3 µM: read-out: % inhibition of PF4 tetramer formation at single concentration of inhibitor; for inhibition at 10 µM: 10 μM inhibitor (column A); for IC50: read-out: IC50 of PF4 tetramer formation inhibition; for inhibition at 1 µM: 1 μM inhibitor; for inhibition at 3 µM: 3 μM inhibitor (column A)
Summary of the method: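 Monomer, dimer, trimer and tetramer fractions were quantified by densitometry after reducing 12% SDS-PAGE of BS3-cross-linked (0.2 mM, 30 min, room temperature) PF4. Before cross-linking, 10 μg/ml E. coli-expressed human WT PF4 in PBS was exposed to compound for 15 min at 37° C or 60 min at room temperature; controls lacked compound.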

Structure (SMILES)	inhibition at 5 µM [%]	inhibition at 10 µM [%]	IC50 [µM]	inhibition at 1 µM [%]	inhibition at 3 µM [%]
C[C@@H]1CC[C@@H](C(=O)C2C(=O)c3ccc(C(=O)c4ccc5c(c4)C(=O)C(C(=O)[C@@H]4CC[C@@H](C)N4C(=O)OC(C)(C)C)C5=O)cc3C2=O)N1C(=O)OC(C)(C)C (stereo partly drawn) [Example 120B, tert-butyl (2S,5R)-2-(5-{2-[(2S,5R)-1-[(tert-butoxy)carbonyl]-5-methylpyrrolidine-2-carbonyl]-1,3-dioxo-2,3-dihydro-1H-indene-5-carbonyl}-1,3-dioxo-2,3-dihydro-1H-indene-2-carbonyl)-5-methylpyrrolidine-1-carboxylate]	75	86	–	–	–
O=C(CN1CCCC1=O)C1C(=O)c2ccc(S(=O)(=O)c3ccc4c(c3)C(=O)C(C(=O)CN3CCCC3=O)C4=O)cc2C1=O (centres unmarked) [Example 184, 5-({1,3-dioxo-2-[2-(2-oxopyrrolidin-1-yl)acetyl]-2,3-dihydro-1H-inden-5-yl}sulfonyl)-2-[2-(2-oxopyrrolidin-1-yl)acetyl]-2,3-dihydro-1H-indene-1,3-dione]	87	95	2	–	–
O=C(NC1CC1)C1C(=O)c2ccc(Oc3ccc4c(c3)C(=O)C(C(=O)NC3CC3)C4=O)cc2C1=O (centres unmarked) [Example 106, N-cyclopropyl-5-{[2-(cyclopropylcarbamoyl)-1,3-dioxo-2,3-dihydro-1H-inden-5-yl]oxy}-1,3-dioxo-2,3-dihydro-1H-indene-2-carboxamide]	–	–	~4	–	–
O=C1c2ccc(S(=O)(=O)c3ccc4c(c3)C(=O)C(C(=O)C3CCC3)C4=O)cc2C(=O)C1C(=O)C1CCC1 (centres unmarked) [Example 296, 2-cyclobutanecarbonyl-5-[(2-cyclobutanecarbonyl-1,3-dioxo-2,3-dihydro-1H-inden-5-yl)sulfonyl]-2,3-dihydro-1H-indene-1,3-dione]	–	–	–	22	36
O=C(NCC1CCCO1)C1C(=O)c2ccc(S(=O)(=O)c3ccc4c(c3)C(=O)C(C(=O)NCC3CCCO3)C4=O)cc2C1=O (centres unmarked) [Example 89, 5-[(1,3-dioxo-2-{[(oxolan-2-yl)methyl]carbamoyl}-2,3-dihydro-1H-inden-5-yl)sulfonyl]-1,3-dioxo-N-[(oxolan-2-yl)methyl]-2,3-dihydro-1H-indene-2-carboxamide]	38	66	–	–	–
CC(C)(C)OC(=O)N1CCC[C@@H]1C(=O)C1C(=O)c2ccc(C(=O)c3ccc4c(c3)C(=O)C(C(=O)[C@H]3CCCN3C(=O)OC(C)(C)C)C4=O)cc2C1=O (some centres unmarked) [Example 161]	87	93	1	–	–
COCCOCCNC(=O)C1C(=O)c2ccc(S(=O)(=O)c3ccc4c(c3)C(=O)C(C(=O)NCCOCCOC)C4=O)cc2C1=O (centres unmarked) [Example 295, N-[2-(2-methoxyethoxy)ethyl]-5-[(2-{[2-(2-methoxyethoxy)ethyl]carbamoyl}-1,3-dioxo-2,3-dihydro-1H-inden-5-yl)sulfonyl]-1,3-dioxo-2,3-dihydro-1H-indene-2-carboxamide]	–	–	1.1	29	100
COCCOCCC(=O)C1C(=O)c2ccc(Oc3ccc4c(c3)C(=O)C(C(=O)CCOCCOC)C4=O)cc2C1=O (centres unmarked) [Example 383, 2-[3-(2-methoxyethoxy)propanoyl]-5-({2-[3-(2-methoxyethoxy)propanoyl]-1,3-dioxo-2,3-dihydro-1H-inden-5-yl}oxy)-2,3-dihydro-1H-indene-1,3-dione]	–	–	–	20	45
CC(C)OCC(=O)C1C(=O)c2ccc(Oc3ccc4c(c3)C(=O)C(C(=O)COC(C)C)C4=O)cc2C1=O (centres unmarked) [Example 378, 5-({1,3-dioxo-2-[2-(propan-2-yloxy)acetyl]-2,3-dihydro-1H-inden-5-yl}oxy)-2-[2-(propan-2-yloxy)acetyl]-2,3-dihydro-1H-indene-1,3-dione]	–	–	–	39	69
O=C1c2ccc(S(=O)(=O)c3ccc4c(c3)C(=O)C(C(=O)C3CCOC3)C4=O)cc2C(=O)C1C(=O)C1CCOC1 (centres unmarked) [Example 147, 5-{[1,3-dioxo-2-(oxolane-3-carbonyl)-2,3-dihydro-1H-inden-5-yl]sulfonyl}-2-(oxolane-3-carbonyl)-2,3-dihydro-1H-indene-1,3-dione]	55	59	–	–	–
NCC(=O)C1C(=O)c2ccc(Oc3ccc4c(c3)C(=O)C(C(=O)CN)C4=O)cc2C1=O (centres unmarked) [Example 326, 2-(2-aminoacetyl)-5-{[2-(2-aminoacetyl)-1,3-dioxo-2,3-dihydro-1H-inden-5-yl]oxy}-2,3-dihydro-1H-indene-1,3-dione]	–	–	–	13	26
CCC(=O)C1C(=O)c2ccc(C(=O)c3ccc4c(c3)C(=O)C(C(=O)CC)C4=O)cc2C1=O (centres unmarked) [Example 324, 5-(1,3-dioxo-2-propanoyl-2,3-dihydro-1H-indene-5-carbonyl)-2-propanoyl-2,3-dihydro-1H-indene-1,3-dione]	–	35	–	–	–
O=C(NC1CC1)C1C(=O)c2ccc(-c3ccc4c(c3)C(=O)C(C(=O)NC3CC3)C4=O)cc2C1=O (centres unmarked) [Example 110, (2Z,2′Z)-2,2′-bis[(cyclopropylamino)(hydroxyl)methylidene]-1H,1′H,2H,2′H,3H,3′H-[5,5′-biindene]-1,1′,3,3′-tetrone]	84	87	~4	–	–
CC(=O)NCCCC(=O)C1C(=O)c2ccc(Oc3ccc4c(c3)C(=O)C(C(=O)CCCNC(C)=O)C4=O)cc2C1=O (centres unmarked) [Example 265, N-[4-(5-{[2-(4-acetamidobutanoyl)-1,3-dioxo-2,3-dihydro-1H-inden-5-yl]oxy}-1,3-dioxo-2,3-dihydro-1H-inden-2-yl)-4-oxobutyl]acetamide]	–	–	–	18	34
O=C(CC1CCCCC1)C1C(=O)c2ccc(S(=O)(=O)c3ccc4c(c3)C(=O)C(C(=O)CC3CCCCC3)C4=O)cc2C1=O (centres unmarked) [Example 148, 2-(2-cyclohexylacetyl)-5-{[2-(2-cyclohexylacetyl)-1,3-dioxo-2,3-dihydro-1H-inden-5-yl]sulfonyl}-2,3-dihydro-1H-indene-1,3-dione]	59	90	–	–	–
CC(C)(C)OC(=O)N1CC[C@H](C(=O)C2C(=O)c3ccc(S(=O)(=O)c4ccc5c(c4)C(=O)C(C(=O)[C@H]4CCN(C(=O)OC(C)(C)C)C4)C5=O)cc3C2=O)C1 (stereo partly drawn) [Example 374, tert-butyl (3S)-3-[5-({2-[(3S)-1-[(tert-butoxy)carbonyl]pyrrolidine-3-carbonyl]-1,3-dioxo-2,3-dihydro-1H-inden-5-yl}sulfonyl)-1,3-dioxo-2,3-dihydro-1H-indene-2-carbonyl]pyrrolidine-1-carboxylate]	–	–	–	22	49
O=C(c1ccc2c(c1)C(=O)C(C(=O)Nc1ccc(Cl)cc1)C2=O)c1ccc2c(c1)C(=O)C(C(=O)Nc1ccc(Cl)cc1)C2=O (centres unmarked) [Example 78, N-(4-chlorophenyl)-5-{2-[(4-chlorophenyl)carbamoyl]-1,3-dioxo-2,3-dihydro-1H-indene-5-carbonyl}-1,3-dioxo-2,3-dihydro-1H-indene-2-carboxamide]	–	–	1.4	–	–
